From article PMC5661635, “Targeting the CXCR4/CXCL12 axis with the peptide antagonist E5 to inhibit breast tumor progression” (Signal Transduction and Targeted Therapy, 2017)
No end group written: not given here.

Key:
CXCR4 = details: cited from earlier work
Text: Nevertheless, challenges still exist in clinical applications. […] In addition, it is known that existing pep ...

4T1 tumors = assay: 4T1 breast cancer model in BALB/c mice; type: in vivo; details: day 33 after inoculation; E5 40 mg kg^-1 s.c. every other day; PTX 8 mg kg^-1 i.p. once a week; n=9
Description: For animal experiments, 1×10^6 4T1 cells were orthotopically inoculated into the right fourth mammary fat pat of BALB/c mice. Seven days after inoculation, the mice were randomized in six groups (n=9 for each group): the control group, the E5 (40 mg kg^−1) group, the chemotherapeutic drug groups (cyclophosphamide (CTX, 90 mg kg^−1) or paclitaxel (PTX, 8 mg kg^−1)), and a group consisting of E5 combined with one of the drugs. E5 solution was subcutaneously injected around solid tumors every other day, and drugs were intraperitoneally injected once a week. The control tumor-bearing mice were treated an equal volume of solvent. The tumor sizes were measured every four days with a caliper. Tumor volume was calculated according to the formula: V=(a×b^2)/2, where a and b are the maximal and minimal diameter in millimeters, respectively. On day 33 after cell injection, the mice were killed by cervical dislocation. The tumors and main organs from each group were weighed immediately after dissection and preserved at −80 °C for further analysis.

HUVECs = assay: CCK-8 cell viability assay; type: cell-based, human; details: E5 concentrations up to 100 μM, 24 h
4T1 cells = assay: Drug sensitivity under CXCL12 stimulus or conditional medium (CCK-8); type: cell-based, murine; details: E5 10 μM; MS-5 conditional medium or medium with 200 ng ml^-1 CXCL12; paclitaxel 4, 20, 100 nM, elemene 10, 20, 40 mg l^-1, cisplatin 2, 4, 8 μM; 24 h
Description: Briefly, 1×10^4 4T1 cells were pre-seeded in 96-well culture plates and incubated overnight. Then, the cells were treated with 10 μM E5 in serum-free medium for 2 h, followed by the addition of either complete medium with 200 ng ml^−1 CXCL12 or conditional medium obtained from 48 h of incubation with MS-5 cells for an additional 4 h of treatment. After that, the cells were incubated the chemotherapeutic drugs paclitaxel (4, 20 and 100 nM), elemene (10, 20 and 40 mg l^−1), or cisplatin (2, 4 and 8 μM) for an additional 24 h. The 4T1 cell viability was analyzed using the CCK-8 assay. The absorbance value of 4T1 cells in the absence of drug treatment was set as 100%.

[1] = E5 every other day in healthy BALB/c mice; cited from earlier work
Description: (§1) The cytotoxicity of blocking CXCR4 with antagonists depends on the concentration and the cell types. For instance, CXCR4 antagonist BKT140 could induce 15–35% cell death at 4 or 8 μM. When its concentration was high as 20 μM, the cell death rate was about 60%.[35]

[2] = test system: multiple acute myeloid leukemia cell lines; details: E5 below 30 μM; cited from earlier work
Description: as §1

[3] = in vivo; cited from earlier work

For c1cc(CN2CCCNCCNCCCNCC2)ccc1CN1CCCNCCNCCCNCC1 [AMD3100, Plerixafor], the agonist activity (CXCR4) is given as “weak partial agonist activity”.

With CC(=O)O[C@H]1C(=O)[C@@]2(C)[C@H]([C@H](OC(=O)c3ccccc3)[C@]3(O)C[C@H](OC(=O)[C@H](O)[C@@H](NC(=O)c4ccccc4)c4ccccc4)C(C)=C1C3(C)C)[C@]1(OC(C)=O)CO[C@@H]1C[C@@H]2O [PTX, paclitaxel] the “effect on tumor weight compared with the control group” value (4T1 tumors) was “did not show a significant inhibitory effect”.

In the case of GGRSFFLLRRIQGCRFRNTVDD [E5], the “cytotoxicity to HUVECs” value (HUVECs) is given as “did not show obvious cytotoxicity”, the “effect on cytotoxic effects of paclitaxel, elemene and cisplatin to 4T1” value (4T1 cells) is given as “could enhance the cytotoxic effects” and the “side effects (organs weight, serum clinical parameters, H&E of heart, kidney, lung, spleen)” value [1] is given as “did not show detectable side effects”. The “direct induction of cell death” value [2] was “did not induce cell death directly”.

For LY2510924, the half-life [3] is listed as 3 to 5 h.
